Test results published in patent publication US20240165140A1, “MEDICATION FOR INHIBITING DNA-PKCS” (TSINGHUA UNIVERSITY, priority 2017, published 2024).

Tests used:
[1] = tested on: tumor cells with normal P53 function (H1299-P53 and A549-NC); assay: CCK8 cell activity, tumor cells with normal P53 function; assay type: cell-based
Description: (§1) First, a lentivirus kit (purchased from Shanghai Genepharma) was used to construct a P53 stably overexpressing H1299 cell line (H1299-P53) and a P53 stably knockdown A549 cell line […]. The P53 sequence targeted by the shRNA used to knock down P53 in A549 cells was 5′-[…]-3′ (SEQ ID NO: 4). Virus transfection and the construction of stable cell lines were performed according to the kit instructions. […] After treatment for 12 hours, the drug-containing medium was replaced with a normal medium and the cells were further cultured for 72 hours. Cell activity was measured according to the instructions of the CCK8 kit (Dojindo, Tokyo, Japan).
In this example, another chemical drug, Doxorubicin, was used to verify that Endostatin can enhance the sensitivity of P53-deficient tumor cells to chemotherapy. Operation process was the same as in Example 5.

[2] = tested on: DNA-PKcs signaling pathway; assay: Immunoblotting of DNA-PKcs signaling pathway activation induced by chemotherapeutic agent; assay type: cell-based; conditions: H1299 and A549 cells; for Level of the DNA-PKcs signaling pathway (p-DNA-PKcs (S2056), p-AKT (S473), p-P53 (S15)): single agent 1 h (Etoposide 10 μM, Endostatin 10 μg/ml, NU7026 10 μM); for Activation of the DNA-PKcs signaling pathway by Etoposide (p-DNA-PKcs (S2056), p-AKT (S473)): 10 μg/ml added 1 h before Etoposide 10 μM
Source text: Tumor cells (including non-small cell lung cancer H1299 and A549 cells) were divided into six treatment groups.
Tumor cells (including H1299 and A549 cells) were divided into six treatment groups.

[3] = tested on: H1299 and A549 cells; assay: Annexin V-FITC/PI apoptosis by flow cytometry with DNA-PKcs siRNA knockdown; assay type: cell-based; conditions: A549 (P53 wild-type) versus H1299 (P53-deficient); 1 μM versus 10 μM, 16 h
Description: In this example, tumor cells (including H1299 and A549 cells) were divided into eight treatment groups. In the first four groups, cells were transfected with control siRNA, and in the last four groups, cells were transfected with siRNA that specifically knocked down DNA-PKcs. The siRNA sequence of DNA-PKcs is: forward 5′-[…]-3′ (SEQ ID NO: 5), reverse 5′-[…]-3′ (SEQ ID NO: 6). The siRNA transfection method was performed according to the instructions of the transfection reagent Lipofectamine 2000. Then, in the eight groups, the cells were treated with drugs. […] Cells were collected and operations were performed according to the instructions of Annexin V-FITC/PI Apoptosis Detection Kit. Apoptosis was detected by flow cytometry. A549 cells were P53 wild-type cells, and H1299 cells were P53-deficient cells.

[4] = tested on: tumor cells with normal P53 function (H1299-P53, A549-NC); assay: Cell colony formation, tumor cells with normal P53 function; assay type: cell-based; conditions: Etoposide 1 μM, 16 h; colonies after 14 days
Description: After the treatment, the cells were digested with trypsin, counted, and re-plated in a six-well plate with 1000 cells per well. The cells were cultured in a normal medium for 14 days to form cell colonies.

[5] = tested on: tumor cells with normal P53 function (H1299-P53, A549-NC); assay: PI staining apoptosis by flow cytometry, tumor cells with normal P53 function; assay type: cell-based; conditions: Etoposide 1 μM, 16 h
Description: The apoptotic cells and adherent cells floating in the culture medium were collected, and the cells were suspended in 500 μl PBS containing 0.05 mg/ml propidium iodide (PI), stained for 15 min at room temperature in dark, and detected by flow cytometry (BD FACS Calibur). PI-positive cells represent apoptotic cells.

[6] = tested on: A375 cells; assay: CCK8 cell activity, melanoma A375; assay type: cell-based; conditions: A375 (P53 wild type); Etoposide; operation process as in Example 5
Description: as §1
This example used two cell lines of another tumor type (melanoma), the MDA-MB-435S (P53 mutant) and A375 (P53 wild type) cell lines, to verify the regulatory function of Endostatin on the chemotherapeutic sensitivity of other types of tumor cells with different P53 status. Operation process was the same as in Example 5.

[7] = tested on: mRNA levels of BAX, NOXA, PUMA, and P21; assay: Real-time PCR of pro-apoptotic molecules, tumor cells with normal P53 function; assay type: cell-based; conditions: H1299-P53, A549-NC; Etoposide 1 μM, 16 h
Description: After the cells were treated as described above, the total RNA of the cells was extracted, and the relative changes in mRNA levels of BAX, NOXA, PUMA, and P21 in the cells were detected by real-time PCR.

[8] = tested on: H1299-NC tumor; assay: Subcutaneous tumor growth in nude mice, H1299-NC; assay type: in vivo; conditions: Day 19, compared with control group, Endostatin 20 mg/kg i.p. once a day, Etoposide 2 mg/kg i.p. once every two days
Description: (§2) Tumor-bearing nude mice were randomly divided into four groups with 6 to 8 animals for each group, and different drug treatments were performed. […] Tumor volume was measured every other day. 2 to 4 weeks after administration, the mice were sacrificed and the tumor tissue was removed for further use.

[9] = tested on: A549-shP53 tumor; assay: Subcutaneous tumor growth in nude mice, A549-shP53; assay type: in vivo; conditions: A549-shP53, Day 27; compared with control group; Endostatin 20 mg/kg i.p. once a day, Etoposide 2 mg/kg i.p. once every two days
Description: as §2

[10] = tested on: H1299-P53 tumor; assay: Subcutaneous tumor growth in nude mice, H1299-P53; assay type: in vivo; conditions: H1299-P53, Day 19; compared with control group; Endostatin 20 mg/kg i.p. once a day, Etoposide 2 mg/kg i.p. once every two days
Description: as §2

[11] = tested on: A549-NC tumor; assay: Subcutaneous tumor growth in nude mice, A549-NC; assay type: in vivo; conditions: Day 27, compared with control group, Endostatin 20 mg/kg i.p. once a day, Etoposide 2 mg/kg i.p. once every two days
Description: as §2

[12] = tested on: H1299 mouse tumor model; assay: Survival of H1299 tumor-bearing mice; assay type: in vivo; conditions: administration as in Example 12, stopped after 25 days
Description: as §2
(§3) H1299 and A549 cells were cultured in a vigorous and proliferative state, and tumor collection, grouping, and administration methods were the same as in Example 12. The administration was stopped after 25 days, and the survival of the mice was recorded daily, and the survival curve of the mice was plotted.

[13] = tested on: A549 tumor-bearing mice (normal P53 function); assay: Survival of A549 tumor-bearing mice; assay type: in vivo; conditions: A549, normal P53 function (FIG. 13B); compared with control group; administration as in Example 12, stopped after 25 days
Description: as §2, §3

[14] = tested on: PCNA and DNA-PKcs protein in H1299-NC and A549-shP53 tumor tissues; assay: Immunofluorescence of PCNA and DNA-PKcs in tumor tissue, P53-deficient mouse tumor model; assay type: in vivo, nude mice; conditions: H1299-NC and A549-shP53 tumors of Example 12; quantitative immunofluorescence
Description: as §2
(§4) The tumor tissue removed in Example 12 was fixed and embedded, and then sectioned. PCNA (a marker molecule indicating the vigorous proliferation status of tumor cells) and DNA-PKcs protein in tumor tissues were stained by immunofluorescence technique, and were observed and imaged with a laser confocal microscope (Nikon A1). The experimental results are shown in FIG. 14A-14D, in which blue represents the nucleus of DAPI-stained cells, green represents the DNA-PKcs protein, and red represents the PCNA protein. Taking the H1299-NC tumor tissue shown in FIG. 14A as an example, the first column on the left represents DNA-PKcs single staining, and the green area represents the DNA-PKcs protein expression level. The second column on the left represents the results of DNA-PKcs (green) merged with nucleus (blue), and the overlapping part is shown in cyan. The third column on the left represents PCNA single staining, and the red area represents the PCNA protein expression level, indicating the strength of tumor cell proliferation. […]

[15] = tested on: PCNA and DNA-PKcs protein in H1299-P53 and A549-NC tumor tissues; assay: Immunofluorescence of PCNA and DNA-PKcs in tumor tissue, mouse tumor model with normal P53 function; assay type: in vivo, nude mice; conditions: H1299-P53 and A549-NC tumors of Example 12; quantitative immunofluorescence
Description: as §2, §4

[16] = tested on: DNA-PKcs, PARP, γH2AX and Caspase-3 signaling pathways; assay: Immunoblotting of DNA damage and apoptotic pathway, P53-deficient tumor cells; assay type: cell-based; conditions: H1299-NC, A549-shP53; Endostatin 10 μg/ml, Etoposide 10 μM 16 h, z-DEVD-fmk 10 μM; Endostatin and z-DEVD-fmk added 1 h before Etoposide
Source text: In this example, tumor cells (H1299-NC, H1299-P53, A549-NC, A549-shP53) were divided into six treatment groups.

COc1cccc2c1C(=O)c1c(O)c3c(c(O)c1C2=O)C[C@@](O)(C(=O)CO)C[C@@H]3O[C@H]1C[C@H](N)[C@H](O)[C@H](C)O1 [Doxorubicin, reference compound]
Activity of tumor cells ([1]; Doxorubicin, operation process as in Example 5): could significantly inhibit the activity of tumor cells

O=c1cc(N2CCOCC2)oc2c1ccc1ccccc12 [NU7026, reference compound]
Level of the DNA-PKcs signaling pathway (p-DNA-PKcs (S2056), p-AKT (S473), p-P53 (S15)) ([2]; compared with control group): did not affect the level of the DNA-PKcs signaling pathway

COc1cc([C@@H]2c3cc4c(cc3[C@@H](O[C@@H]3O[C@@H]5CO[C@@H](C)O[C@H]5[C@H](O)[C@H]3O)[C@H]3COC(=O)[C@H]23)OCO4)cc(OC)c1O [Etoposide, reference compound]
Level of the DNA-PKcs signaling pathway (p-DNA-PKcs (S2056), p-AKT (S473)) ([2]; Example 15, Etoposide 10 μM, 1 h, compared with control group): activated the level of the DNA-PKcs signaling pathway in H1299 and A549 cells
Level of the DNA-PKcs signaling pathway (p-DNA-PKcs (S2056), p-AKT (S473), p-P53 (S15)) ([2]; compared with control group): activated the level of the DNA-PKcs signaling pathway
Sensitivity of cells to the chemotherapeutic agent (apoptosis) [3]: A549 cells were more sensitive to the chemotherapeutic agent
Activity of tumor cells ([1]; Etoposide 0, 0.1, 1, 10 μM, 12 hours treatment, 72 hours further culture): could significantly inhibit the activity of tumor cells
Colony-forming ability of tumor cells [4]: could significantly inhibit the colony-forming ability of tumor cells
Apoptosis of tumor cells (PI-positive cells) [5]: could significantly promote the apoptosis of tumor cells
Activity of tumor cells [6]: could significantly inhibit the activity of tumor cells
mRNA levels of pro-apoptotic molecules BAX, NOXA, PUMA, P21 [7]: could significantly up-regulate the above pro-apoptotic molecules
tumor suppression rate [8]: 28.0%
tumor suppression rate [9]: 39.3%
tumor suppression rate [10]: 30.0%
tumor suppression rate [11]: 34.0%
median survival time longer than that of the control group [12]: 30.3%
Survival time of mice [13]: could prolong the survival time of the mice to some extent
Tumor cell proliferation (PCNA) and protein level of DNA-PKcs in tumor tissue [14]: can attenuate tumor cell proliferation to a certain extent and reduce the protein level of DNA-PKcs
Tumor cell proliferation (PCNA) and protein level of DNA-PKcs in tumor tissue [15]: could reduce the proliferation of tumor cells and reduce the protein level of DNA-PKcs

z-DEVD-fmk [reference compound]
DNA-PKcs, PARP, γH2AX and Caspase-3 signaling pathway levels [16]: could reverse the synergistic effect of Endostatin and Etoposide to some extent

B1: ZBP-Endostatin: endostatin variant obtained by adding 9 additional amino acids (MGGSHHHHH) to the N-terminus of natural human endostatin, SEQ ID NO: 3 (protein)
chain: MGGSHHHHHHSHRDFQPVLHLVALNSPLSGGMRGIRGADFQCFQQARAVGLAGTFRAFLSSRLQDLYSIVRRADRAAVPIVNLKDELLFPSWEALFSGSEGPLKPGARIFSFDGKDVLRHPTWPQKSVWHGSDPNGRRLTESYCETWRTEAPSATGQASSLLGGRLLGQSAASCHHAYIVLCIENSFMTASK
modifications: The amino acid sequence of ZBP-Endostatin
Activation of the DNA-PKcs signaling pathway by Etoposide (p-DNA-PKcs (S2056), p-AKT (S473)) ([2]; Example 15, 1 h): inhibited the activation of the DNA-PKcs signaling pathway by Etoposide

B2: PEG-Endostatin: natural human endostatin modified with 20 kDa mPEG-ALD at the N-terminal α-amino group (conjugate)
chain: MHSHRDFQPVLHLVALNSPLSGGMRGIRGADFQCFQQARAVGLAGTFRAFLSSRLQDLYSIVRRADRAAVPIVNLKDELLFPSWEALFSGSEGPLKPGARIFSFDGKDVLRHPTWPQKSVWHGSDPNGRRLTESYCETWRTEAPSATGQASSLLGGRLLGQSAASCHHAYIVLCIENSFMTASK
Activation of the DNA-PKcs signaling pathway by Etoposide (p-DNA-PKcs (S2056), p-AKT (S473)) ([2]; Example 15, 1 h): inhibited the activation of the DNA-PKcs signaling pathway by Etoposide
